Experimental data: patent US20230141101A1, “PDE4 INHIBITOR COMPOUND AND MEDICAL USE THEREOF” (Suzhou Longbotai Pharmaceuticals Co., Ltd., priority 2020, published 2023)

Assays:
Type in all cases: biochemical
Settings in all cases: 20 nM
PDE4B1 = molecular target: T1, PDE4B1 (Homo sapiens, UniProt Q07343); assay: PDE4 inhibitory activity assay (FAM-cAMP enzymatic reaction), PDE4B1
T1 construct: purchased BPS 60041
In short: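 Each isoform is incubated with test compound for 15 min at room temperature before FAM-cAMP substrate starts a 30-min reaction.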

PDE4A1A = molecular target: T2, PDE4A1A (Homo sapiens, UniProt P27815); assay: PDE4 inhibitory activity assay (FAM-cAMP enzymatic reaction), PDE4A1A
T2 construct: purchased BPS 60040
In short: (§1)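 Inhibition rates from a fluorescence read gave IC50 values. Each enzyme (PDE4A1A, PDE4B1, PDE4D2) sat with compound for 15 min at room temperature; FAM-cAMP then started a 30 min room-temperature reaction, ended with stop solution and left 60 min more.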

PDE4D2 = PDE4D2 (Homo sapiens, UniProt Q08499); assay: PDE4 inhibitory activity assay (FAM-cAMP enzymatic reaction), PDE4D2
In short: as §1

T2 sequence (P27815 1-647 isoform P27815-4): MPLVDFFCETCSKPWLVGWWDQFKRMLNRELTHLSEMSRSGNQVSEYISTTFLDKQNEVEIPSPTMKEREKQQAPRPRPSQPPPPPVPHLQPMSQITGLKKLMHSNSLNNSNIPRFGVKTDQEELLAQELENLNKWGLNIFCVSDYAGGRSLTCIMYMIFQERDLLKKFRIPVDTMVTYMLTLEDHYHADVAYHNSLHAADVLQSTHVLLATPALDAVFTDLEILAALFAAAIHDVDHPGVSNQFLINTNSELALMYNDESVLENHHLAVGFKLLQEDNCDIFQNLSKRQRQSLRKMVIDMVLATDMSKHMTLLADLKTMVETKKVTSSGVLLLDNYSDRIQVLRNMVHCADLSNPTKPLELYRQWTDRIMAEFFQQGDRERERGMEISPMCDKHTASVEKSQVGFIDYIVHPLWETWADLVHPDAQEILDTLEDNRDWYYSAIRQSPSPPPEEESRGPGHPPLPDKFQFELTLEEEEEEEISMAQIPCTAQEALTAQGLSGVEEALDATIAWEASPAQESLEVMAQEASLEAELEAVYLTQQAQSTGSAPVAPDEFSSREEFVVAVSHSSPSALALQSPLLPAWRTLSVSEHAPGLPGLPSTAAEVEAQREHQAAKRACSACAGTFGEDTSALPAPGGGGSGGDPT
PDE4D2, sequence (Q08499 303-809): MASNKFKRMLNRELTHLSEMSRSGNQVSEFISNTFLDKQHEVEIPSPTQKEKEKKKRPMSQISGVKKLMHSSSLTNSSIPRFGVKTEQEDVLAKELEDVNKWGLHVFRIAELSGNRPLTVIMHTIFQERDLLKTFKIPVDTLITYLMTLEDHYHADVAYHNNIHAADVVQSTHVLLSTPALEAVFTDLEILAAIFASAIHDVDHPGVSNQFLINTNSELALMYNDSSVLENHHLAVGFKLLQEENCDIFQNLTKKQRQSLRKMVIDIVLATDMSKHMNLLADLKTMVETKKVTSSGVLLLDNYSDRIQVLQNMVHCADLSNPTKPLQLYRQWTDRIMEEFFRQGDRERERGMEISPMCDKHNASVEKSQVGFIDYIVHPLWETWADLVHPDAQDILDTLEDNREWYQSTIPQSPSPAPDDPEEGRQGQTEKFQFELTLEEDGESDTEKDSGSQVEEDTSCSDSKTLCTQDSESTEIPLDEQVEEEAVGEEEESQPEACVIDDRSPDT
T1 sequence (Q07343 whole entry): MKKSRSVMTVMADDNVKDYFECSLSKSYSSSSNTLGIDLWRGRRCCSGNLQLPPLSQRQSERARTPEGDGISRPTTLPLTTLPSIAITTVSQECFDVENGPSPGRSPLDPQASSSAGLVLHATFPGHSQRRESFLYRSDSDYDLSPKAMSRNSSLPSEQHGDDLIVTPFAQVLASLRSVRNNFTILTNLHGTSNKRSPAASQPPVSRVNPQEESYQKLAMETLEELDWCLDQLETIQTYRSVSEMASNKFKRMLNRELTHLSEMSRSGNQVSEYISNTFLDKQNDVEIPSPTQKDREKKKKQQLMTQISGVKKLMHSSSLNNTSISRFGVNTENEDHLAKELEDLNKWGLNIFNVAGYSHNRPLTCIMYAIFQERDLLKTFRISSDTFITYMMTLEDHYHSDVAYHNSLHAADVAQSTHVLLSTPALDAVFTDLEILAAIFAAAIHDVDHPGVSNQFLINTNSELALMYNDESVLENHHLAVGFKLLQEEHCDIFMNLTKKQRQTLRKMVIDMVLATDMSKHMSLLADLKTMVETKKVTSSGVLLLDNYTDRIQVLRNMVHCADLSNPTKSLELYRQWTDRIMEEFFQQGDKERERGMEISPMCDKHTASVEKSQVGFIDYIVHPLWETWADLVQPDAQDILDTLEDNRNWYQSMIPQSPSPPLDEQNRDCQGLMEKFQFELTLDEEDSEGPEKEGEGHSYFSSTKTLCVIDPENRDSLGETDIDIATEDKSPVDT

CCOc1nc([C@@H](CS(C)(=O)=O)n2c(=O)n(CC)c3cc(-c4ccccn4)cnc32)ccc1OC [Ex. 124, (S)-3-(1-(6-ethoxy-5-methoxypyridin-2-yl)-2-(methylsulfonyl)ethyl)-1-ethyl-6-(pyridin-2-yl)-1H-imidazo[4,5-b]pyridin-2(3H)-one]
+: PDE4 B1 inhibitory effect at 20 nM (PDE4B1) | PDE4 A1 inhibitory effect at 20 nM (PDE4A1A) | PDE4 D2 inhibitory effect at 20 nM (PDE4D2)

CCOc1nc([C@@H](CS(C)(=O)=O)n2c(=O)n(CCOC)c3cc(-c4ccccn4)cnc32)ccc1OC [Ex. 125, (S)-3-(1-(6-ethoxy-5-methoxypyridin-2-yl)-2-(methylsulfonyl)ethyl)-1-(2-methoxyethyl)-6-(pyridin-2-yl)-1H-imidazo[4,5-b]pyridin-2(3H)-one]
+: PDE4 B1 inhibitory effect at 20 nM (PDE4B1) | PDE4 A1 inhibitory effect at 20 nM (PDE4A1A) | PDE4 D2 inhibitory effect at 20 nM (PDE4D2)

CCOc1nc([C@@H](CS(C)(=O)=O)n2c(=O)n(C)c3cc(-c4ccccc4F)cnc32)ccc1OC [Ex. 126, (S)-3-(1-(6-ethoxy-5-methoxypyridin-2-yl)-2-(methylsulfonyl)ethyl)-6-(2-fluorophenyl)-1-methyl-1H-imidazo[4,5-b]pyridin-2(3H)-one]
+: PDE4 B1 inhibitory effect at 20 nM (PDE4B1) | PDE4 A1 inhibitory effect at 20 nM (PDE4A1A) | PDE4 D2 inhibitory effect at 20 nM (PDE4D2)

CCOc1nc([C@@H](CS(C)(=O)=O)n2c(=O)n(C)c3cc(-c4ccc(F)cc4)cnc32)ccc1OC [Ex. 128, (S)-3-(1-(6-ethoxy-5-methoxypyridin-2-yl)-2-(methylsulfonyl)ethyl)-6-(4-fluorophenyl)-1-methyl-1H-imidazo[4,5-b]pyridin-2(3H)-one]
+: PDE4 B1 inhibitory effect at 20 nM (PDE4B1) | PDE4 A1 inhibitory effect at 20 nM (PDE4A1A) | PDE4 D2 inhibitory effect at 20 nM (PDE4D2)

CCOc1nc([C@@H](CS(C)(=O)=O)n2c(=O)[nH]c3cc(Br)ccc32)ccc1OC [Ex. 129, (S)-5-bromo-1-(1-(6-ethoxy-5-methoxypyridin-2-yl)-2-(methylsulfonyl)ethyl)-1H-benzo[d]imidazol-2(3H)-one]
+: PDE4 B1 inhibitory effect at 20 nM (PDE4B1) | PDE4 A1 inhibitory effect at 20 nM (PDE4A1A) | PDE4 D2 inhibitory effect at 20 nM (PDE4D2)

CCOc1nc([C@@H](CS(C)(=O)=O)n2c(=O)[nH]c3cc(-c4ccccc4)ccc32)ccc1OC [Ex. 130, (S)-1-(1-(6-ethoxy-5-methoxypyridin-2-yl)-2-(methylsulfonyl)ethyl)-5-phenyl-1H-benzo[d]imidazol-2(3H)-one]
+: PDE4 B1 inhibitory effect at 20 nM (PDE4B1) | PDE4 A1 inhibitory effect at 20 nM (PDE4A1A) | PDE4 D2 inhibitory effect at 20 nM (PDE4D2)

CCOc1nc([C@@H](CS(C)(=O)=O)n2c(=O)n(C)c3cc(-c4ccccc4)ccc32)ccc1OC [Ex. 131, (S)-1-(1-(6-ethoxy-5-methoxypyridin-2-yl)-2-(methylsulfonyl)ethyl)-5-phenyl-3-methyl-1H-benzo[d]imidazol-2(3H)-one]
+: PDE4 B1 inhibitory effect at 20 nM (PDE4B1) | PDE4 A1 inhibitory effect at 20 nM (PDE4A1A) | PDE4 D2 inhibitory effect at 20 nM (PDE4D2)

CCOc1nc([C@@H](CS(C)(=O)=O)n2c(=O)[nH]c3cc(-c4ccccc4F)ccc32)ccc1OC [Ex. 132, (S)-1-(1-(6-ethoxy-5-methoxypyridin-2-yl)-2-(methylsulfonyl)ethyl)-5-(2-fluorophenyl)-1H-benzo[d]imidazol-2(3H)-one]
+: PDE4 B1 inhibitory effect at 20 nM (PDE4B1) | PDE4 A1 inhibitory effect at 20 nM (PDE4A1A) | PDE4 D2 inhibitory effect at 20 nM (PDE4D2)

CCOc1nc([C@H](CS(C)(=O)=O)n2c(=O)[nH]c3cc(-c4ccccc4F)ccc32)ccc1OC [Ex. 134, (R)-1-(1-(6-ethoxy-5-methoxypyridin-2-yl)-2-(methylsulfonyl)ethyl)-5-(2-fluorophenyl)-1H-benzo[d]imidazol-2(3H)-one]
+: PDE4 B1 inhibitory effect at 20 nM (PDE4B1) | PDE4 A1 inhibitory effect at 20 nM (PDE4A1A) | PDE4 D2 inhibitory effect at 20 nM (PDE4D2)
